ChEMBL document CHEMBL5126608, “Development, Optimization, and In Vivo Validation of New Imidazopyridine Chemotypes as Dual TLR7/TLR9 Antagonists through Activity-Directed Sequential Incorporation of Relevant Structural Subunits” (J Med Chem, 2022)

Legend:
[1] = target: T1, Toll-like receptor 9 (Homo sapiens, UniProt Q9NR96); assay: Antagonist activity at human TLR9 expressed in HEK-blue hTLR9 cells assessed as inhibition of CpGB-induced NFkappaB activation preincubated with compound for 1 hrs followed by CpGB addition and measured next day by SEAP-based spectrophotometry assay; assay type: cell-based
T1 sequence (Q9NR96 whole entry): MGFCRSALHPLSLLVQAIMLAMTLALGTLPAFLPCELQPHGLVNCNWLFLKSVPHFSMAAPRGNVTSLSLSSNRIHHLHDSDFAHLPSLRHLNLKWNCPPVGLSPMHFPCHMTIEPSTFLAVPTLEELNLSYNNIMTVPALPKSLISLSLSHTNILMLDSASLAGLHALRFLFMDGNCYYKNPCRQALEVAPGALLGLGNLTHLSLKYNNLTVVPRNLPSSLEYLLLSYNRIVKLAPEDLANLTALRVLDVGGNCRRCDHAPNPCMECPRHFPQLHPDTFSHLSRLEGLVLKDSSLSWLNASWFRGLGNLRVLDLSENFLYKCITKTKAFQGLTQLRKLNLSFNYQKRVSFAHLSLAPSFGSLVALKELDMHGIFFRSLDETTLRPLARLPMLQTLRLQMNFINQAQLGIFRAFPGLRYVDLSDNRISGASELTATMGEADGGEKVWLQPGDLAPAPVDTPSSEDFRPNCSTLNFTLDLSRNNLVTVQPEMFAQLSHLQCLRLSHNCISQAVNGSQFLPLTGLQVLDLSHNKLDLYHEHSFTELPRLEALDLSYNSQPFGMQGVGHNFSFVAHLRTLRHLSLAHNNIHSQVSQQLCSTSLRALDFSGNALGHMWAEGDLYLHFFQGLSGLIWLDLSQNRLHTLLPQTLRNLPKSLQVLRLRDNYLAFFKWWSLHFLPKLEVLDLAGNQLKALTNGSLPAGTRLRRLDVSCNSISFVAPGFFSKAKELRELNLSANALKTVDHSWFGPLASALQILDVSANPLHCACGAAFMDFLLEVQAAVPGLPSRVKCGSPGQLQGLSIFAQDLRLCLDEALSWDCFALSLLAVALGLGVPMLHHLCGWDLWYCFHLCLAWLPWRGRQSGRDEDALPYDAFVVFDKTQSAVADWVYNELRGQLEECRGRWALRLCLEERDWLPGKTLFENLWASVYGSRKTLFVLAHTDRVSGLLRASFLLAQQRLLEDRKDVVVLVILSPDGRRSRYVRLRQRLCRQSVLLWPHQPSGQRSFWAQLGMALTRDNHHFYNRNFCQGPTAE

[2] = target: T2, Toll-like receptor 8 (Homo sapiens, UniProt Q9NR97)
T2 sequence (Q9NR97 whole entry): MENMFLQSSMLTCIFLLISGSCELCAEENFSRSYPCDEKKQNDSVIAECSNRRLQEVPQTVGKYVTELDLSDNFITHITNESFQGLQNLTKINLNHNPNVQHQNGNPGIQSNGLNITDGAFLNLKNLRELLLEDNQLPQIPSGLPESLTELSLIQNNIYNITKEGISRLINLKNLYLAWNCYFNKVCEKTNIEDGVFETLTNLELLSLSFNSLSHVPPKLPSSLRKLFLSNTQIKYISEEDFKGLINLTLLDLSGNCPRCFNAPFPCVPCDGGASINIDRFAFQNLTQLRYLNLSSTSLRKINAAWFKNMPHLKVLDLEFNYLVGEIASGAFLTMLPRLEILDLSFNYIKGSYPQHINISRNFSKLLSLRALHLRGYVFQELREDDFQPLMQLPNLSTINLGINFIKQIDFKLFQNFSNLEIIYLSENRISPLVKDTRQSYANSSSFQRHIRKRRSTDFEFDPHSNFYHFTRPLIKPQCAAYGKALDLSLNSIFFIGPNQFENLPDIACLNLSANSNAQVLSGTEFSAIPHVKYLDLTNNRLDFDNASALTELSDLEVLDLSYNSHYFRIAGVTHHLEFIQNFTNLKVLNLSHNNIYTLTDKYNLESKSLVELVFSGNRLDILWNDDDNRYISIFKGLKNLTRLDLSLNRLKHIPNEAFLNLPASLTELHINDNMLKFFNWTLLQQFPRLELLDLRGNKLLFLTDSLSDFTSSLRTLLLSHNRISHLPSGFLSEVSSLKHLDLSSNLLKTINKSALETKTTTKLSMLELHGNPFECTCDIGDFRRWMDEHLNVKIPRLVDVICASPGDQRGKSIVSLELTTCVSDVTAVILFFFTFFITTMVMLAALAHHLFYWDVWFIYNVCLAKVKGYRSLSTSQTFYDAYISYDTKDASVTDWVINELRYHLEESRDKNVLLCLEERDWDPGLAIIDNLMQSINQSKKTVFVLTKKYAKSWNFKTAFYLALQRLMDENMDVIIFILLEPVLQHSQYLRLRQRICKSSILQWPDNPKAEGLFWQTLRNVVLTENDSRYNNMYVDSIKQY

COc1ccc(-c2cn3ccc(NCCCN4CCCC4)cc3n2)c(OC)c1
IC50 [1]: 19 nM
IC50 [2]: 17.2 µM
